Measured values from patent publication US10781211B2, “Spirocycle compounds and methods of making and using same” (Lundbeck La Jolla Research Center, Inc., priority 2016, dated 2020).

Tests used:
Type in all cases: in vivo
Settings in all cases: 5 mg/kg oral gavage
MAGL = MAGL (Mus musculus (Mouse), UniProt O35678); assay: Mouse brain proteomes from inhibitor treated mice (oral gavage, sacrifice 4 h after administration, ABPP analysis)
Method: (§1) Preparation of Mouse Brain Proteomes from Inhibitor Treated Mice.
(§2) Inhibitors were administered to wild-type C57Bl/6J by oral gavage in a vehicle, e.g. PEG400/Ethanol/PBS (7/2/1). Each animal was sacrificed 4 h following administration and brain proteomes were prepared and analyzed according to previously established methods (See Niphakis, M. J., et al. (2011) ACS Chem. Neurosci. and Long, J. Z., et al. Nat. Chem. Biol. 5:37-44). Data from this assay is shown in Table 2 (% inhibition at 5 mg/kg).

FAAH = FAAH (Mus musculus (Mouse), UniProt O08914); assay: Mouse brain proteomes from inhibitor treated mice (oral gavage, sacrifice 4 h after administration, ABPP analysis), FAAH
Chain of FAAH (O08914 whole entry): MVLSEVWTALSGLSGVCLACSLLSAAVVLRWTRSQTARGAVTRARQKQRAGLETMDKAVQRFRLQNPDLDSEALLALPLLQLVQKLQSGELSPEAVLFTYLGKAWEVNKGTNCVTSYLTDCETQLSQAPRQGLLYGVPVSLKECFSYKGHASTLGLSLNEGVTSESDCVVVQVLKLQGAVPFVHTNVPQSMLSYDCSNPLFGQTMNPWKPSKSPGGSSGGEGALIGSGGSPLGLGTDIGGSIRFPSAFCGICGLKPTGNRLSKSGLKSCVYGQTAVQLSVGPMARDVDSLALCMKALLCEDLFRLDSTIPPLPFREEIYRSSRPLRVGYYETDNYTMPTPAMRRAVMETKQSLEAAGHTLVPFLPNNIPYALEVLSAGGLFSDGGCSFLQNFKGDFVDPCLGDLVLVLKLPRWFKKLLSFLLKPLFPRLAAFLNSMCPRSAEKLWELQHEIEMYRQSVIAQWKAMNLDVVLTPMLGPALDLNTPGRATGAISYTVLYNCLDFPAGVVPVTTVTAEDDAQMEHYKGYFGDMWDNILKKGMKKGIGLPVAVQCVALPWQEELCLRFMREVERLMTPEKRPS
Method: as §1, §2

ABHD6 = ABHD6 (Mus musculus (Mouse), UniProt Q8R2Y0); assay: Mouse brain proteomes from inhibitor treated mice (oral gavage, sacrifice 4 h after administration, ABPP analysis), ABHD6
Chain of ABHD6 (Q8R2Y0 whole entry): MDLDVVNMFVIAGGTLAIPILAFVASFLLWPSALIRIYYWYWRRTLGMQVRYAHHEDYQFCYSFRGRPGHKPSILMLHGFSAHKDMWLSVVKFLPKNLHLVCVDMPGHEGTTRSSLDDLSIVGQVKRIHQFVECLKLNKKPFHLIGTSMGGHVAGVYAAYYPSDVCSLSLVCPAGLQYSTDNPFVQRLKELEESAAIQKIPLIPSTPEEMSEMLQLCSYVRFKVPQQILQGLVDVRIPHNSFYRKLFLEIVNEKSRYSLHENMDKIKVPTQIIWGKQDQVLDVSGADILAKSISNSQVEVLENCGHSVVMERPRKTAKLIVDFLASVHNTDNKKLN
Method: as §1, §2

Chain of MAGL (O35678 whole entry): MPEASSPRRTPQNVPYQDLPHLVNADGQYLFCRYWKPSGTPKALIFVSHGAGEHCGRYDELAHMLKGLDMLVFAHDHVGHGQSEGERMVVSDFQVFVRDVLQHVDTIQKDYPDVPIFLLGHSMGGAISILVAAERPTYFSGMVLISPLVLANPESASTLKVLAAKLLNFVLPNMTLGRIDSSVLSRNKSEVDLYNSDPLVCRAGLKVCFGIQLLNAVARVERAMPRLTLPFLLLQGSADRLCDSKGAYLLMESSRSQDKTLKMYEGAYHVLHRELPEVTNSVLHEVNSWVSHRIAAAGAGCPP

| SMILES | MAGL % Inh 5 mg/kg (mouse) (MAGL) | FAAH % Inh 5 mg/kg (mouse) (FAAH) | ABHD6 % Inh 5 mg/kg (mouse) (ABHD6) |
| --- | --- | --- | --- |
| CC1(C)CC2(CCN(C(=O)OC(C(F)(F)F)C(F)(F)F)CC2)CN1Cc1ccc(Cl)cc1 [Example 48, 1,1,1,3,3,3-Hexafluoropropan-2-yl 2-(4-chlorobenzyl)-3,3-dimethyl-2,8-diazaspiro[4.5]decane-8-carboxylate] | ### (### is ≥ 75%) | # (# is < 25%) |  |
| CS(=O)(=O)NC1CCN(c2cc(Cl)ccc2CN2CCCC23CCN(C(=O)OC(C(F)(F)F)C(F)(F)F)CC3)CC1 [Example 105, 1,1,1,3,3,3-Hexafluoropropan-2-yl 1-(4-chloro-2-(4-(methylsulfonamido)piperidin-1-yl)benzyl)-1,8-diazaspiro[4.5]decane-8-carboxylate] | # (# is < 25%) | # (# is < 25%) | # (# is < 25%) |
| O=C(O)[C@H]1CCCN(c2cc(C(F)(F)F)ccc2CN2CCCC23CCN(C(=O)OC(C(F)(F)F)C(F)(F)F)CC3)C1 [Example 217] | ### (### is ≥ 75%) | # (# is < 25%) | # (# is < 25%) |
| O=C(OC(C(F)(F)F)C(F)(F)F)N1CCC2(CCCN2Cc2cccc(N3CC4CCC(C3)O4)c2Cl)CC1 [Example 82, 1,1,1,3,3,3-Hexafluoropropan-2-yl 1-(3-(8-oxa-3-azabicyclo[3.2.1]octan-3-yl)-2-chlorobenzyl)-1,8-diazaspiro[4.5]decane-8-carboxylate] | ### (### is ≥ 75%) | # (# is < 25%) | # (# is < 25%) |
| O=C(O)C1CCN(c2cc(CN3CCCC34CCN(C(=O)OC(C(F)(F)F)C(F)(F)F)CC4)cc(C(F)(F)F)c2)CC1 [Example 123, 1-(3-((8-(((1,1,1,3,3,3-Hexafluoropropan-2-yl)oxy)carbonyl)-1,8-diazaspiro[4.5]decan-1-yl)methyl)-5-(trifluoromethyl)phenyl)piperidine-4-carboxylic acid] | ### (### is ≥ 75%) | # (# is < 25%) |  |
| O=C(O)C1CCN(c2cc(S(F)(F)(F)(F)F)ccc2CN2CCCC23CCN(C(=O)OC(C(F)(F)F)C(F)(F)F)CC3)CC1 [Example 240] | ### (### is ≥ 75%) | # (# is < 25%) | # (# is < 25%) |
| O=C(O)C1CCN(c2cc(OC(F)(F)F)ccc2CN2CCCC23CCN(C(=O)OC(C(F)(F)F)C(F)(F)F)CC3)CC1 [Example 248] | ### (### is ≥ 75%) | # (# is < 25%) | # (# is < 25%) |
| COc1c(Cl)cccc1CN1CCCC12CCN(C(=O)OC(C(F)(F)F)C(F)(F)F)CC2 [Example 10, 1,1,1,3,3,3-Hexafluoropropan-2-yl 1-(3-chloro-2-methoxybenzyl)-1,8-diazaspiro[4.5]decane-8-carboxylate] | ### (### is ≥ 75%) |  | # (# is < 25%) |
| CCOc1cccc(CN2CCCC23CCN(C(=O)OC(C(F)(F)F)C(F)(F)F)CC3)c1 [Example 5, 1,1,1,3,3,3-Hexafluoropropan-2-yl 1-(3-ethoxybenzyl)-1,8-diazaspiro[4.5]decane-8-carboxylate] | ### (### is ≥ 75%) | # (# is < 25%) |  |
| O=C(OC(C(F)(F)F)C(F)(F)F)N1CCC2(CCCN2Cc2ccccc2Cl)CC1 [Example 60, 1,1,1,3,3,3-Hexafluoropropan-2-yl 1-(2-chlorobenzyl)-1,8-diazaspiro[4.5]decane-8-carboxylate] | ### (### is ≥ 75%) |  | # (# is < 25%) |
| O=C(O)c1cc(CN2CCCC23CCN(C(=O)OC(C(F)(F)F)C(F)(F)F)CC3)ccc1C(F)(F)F [Example 179, 5-((8-((1,1,1,3,3,3-Hexafluoropropan-2-yloxy)carbonyl)-1,8-diazaspiro[4.5]decan-1-yl)methyl)-2-(trifluoromethyl)benzoic acid] | ### (### is ≥ 75%) |  | # (# is < 25%) |
| N#Cc1cc(CN2CCCC23CCN(C(=O)OC(C(F)(F)F)C(F)(F)F)CC3)cc(N2CCC(C(=O)O)CC2)c1 [Example 210] | ### (### is ≥ 75%) | # (# is < 25%) |  |
| O=C(OC(C(F)(F)F)C(F)(F)F)N1CCC2(CCN(Cc3ccc(C(F)(F)F)c(N4CCCC4)c3)C2)CC1 [Example 157, 1,1,1,3,3,3-Hexafluoropropan-2-yl 2-(3-(pyrrolidin-1-yl)-4-(trifluoromethyl)benzyl)-2,8-diazaspiro[4.5]decane-8-carboxylate] | ### (### is ≥ 75%) | # (# is < 25%) |  |
| CCN1CCCc2cccc(CN3CCC4(CCN(C(=O)OC(C(F)(F)F)C(F)(F)F)CC4)C3)c21 [Example 71, 1,1,1,3,3,3-Hexafluoropropan-2-yl 2-((1-ethyl-1,2,3,4-tetrahydroquinolin-8-yl)methyl)-2,8-diazaspiro[4.5]decane-8-carboxylate] | ### (### is ≥ 75%) | # (# is < 25%) |  |
| O=C(OC(C(F)(F)F)C(F)(F)F)N1CCC2(CCCN2Cc2cc(Cl)cc(N3CCOCC3)c2)CC1 [Example 33, 1,1,1,3,3,3-Hexafluoropropan-2-yl 1-(3-chloro-5-morpholinobenzyl)-1,8-diazaspiro[4.5]decane-8-carboxylate] | ### (### is ≥ 75%) |  | # (# is < 25%) |
| CS(=O)(=O)N1CCc2cccc(CN3CCCC34CCN(C(=O)OC(C(F)(F)F)C(F)(F)F)CC4)c2C1 [Example 146, 1,1,1,3,3,3-Hexafluoropropan-2-yl 1-((2-methanesulfonyl-1,2,3,4-tetrahydroisoquinolin-8-yl)methyl)-1,8-diazaspiro[4.5]decane-8-carboxylate] | ### (### is ≥ 75%) | # (# is < 25%) |  |
| O=C(OC(C(F)(F)F)C(F)(F)F)N1CCC2(CCCN2Cc2ccc(F)c(OCCF)c2)CC1 [Example 29, 1,1,1,3,3,3-Hexafluoropropan-2-yl 1-(4-fluoro-3-(2-fluoroethoxy)benzyl)-1,8-diazaspiro[4.5]decane-8-carboxylate] | ### (### is ≥ 75%) |  | ### (### is ≥ 75%) |
| O=C(OC(C(F)(F)F)C(F)(F)F)N1CCC2(CCCN2Cc2ccc(Cl)cc2N2CCC2)CC1 [Example 107, 1,1,1,3,3,3-Hexafluoropropan-2-yl 1-(2-(azetidin-1-yl)-4-chlorobenzyl)-1,8-diazaspiro[4.5]decane-8-carboxylate] | ### (### is ≥ 75%) |  | # (# is < 25%) |
| O=C(OC(C(F)(F)F)C(F)(F)F)N1CCC2(CCN(Cc3ccc(Cl)cc3N3CCOCC3)C2)CC1 [Example 21, 1,1,1,3,3,3-Hexafluoropropan-2-yl 2-(4-chloro-2-morpholinobenzyl)-2,8-diazaspiro[4.5]decane-8-carboxylate] | ### (### is ≥ 75%) | # (# is < 25%) |  |
| O=C(OC(C(F)(F)F)C(F)(F)F)N1CCC2(CCCN2Cc2ccc(OCCF)cc2)CC1 [Example 31, 1,1,1,3,3,3-Hexafluoropropan-2-yl 1-(4-(2-fluoroethoxy)benzyl)-1,8-diazaspiro[4.5]decane-8-carboxylate] | ### (### is ≥ 75%) | # (# is < 25%) |  |
